As to `COc1ccc2c(c1)C(=O)N(c1ccc3c(c1)cc(C)n3C)C2` [Example 18, 2-(1,2-dimethyl-1H-indol-5-yl)-6-methoxyisoindolin-1-one], the melting point (in general, the temperature, or range, at which the solid turns liquid) is 209 to 213 °C.
As to `COc1ccc2c(c1)CN(c1ccc3c(ccn3C)c1)C2` [Example 19, 5-(5-methoxyisoindolin-2-yl)-1-methyl-1H-indole], the melting point fell in the range of 193 to 196 °C.
With `COc1ccc2c(c1)C(=O)N(c1ccc3ccn(C)c3c1)C2` [Example 20, 6-methoxy-2-(1-methyl-1H-indol-6-yl)isoindolin-1-one], the melting point was in the range of 158 to 161 °C.
The same measure for `CC(=O)Nc1cccc2c1CN(c1ccc3ccn(C)c3c1)C2=O` [Example 21, N-(2-(1-methyl-1H-indol-6-yl)-1-oxoisoindolin-4-yl)acetamide]: 180 to 184 °C; for `COc1ccc2c(c1)C(=O)N(c1ccc3ccn(CC#N)c3c1)C2` [Example 22, 2-(6-(6-methoxy-1-oxoisoindolin-2-yl)-1H-indol-1-yl)acetonitrile]: 218 to 220 °C.
Regarding `Cn1ccc2ccc(N3Cc4ccc(-c5cccnc5)cc4C3=O)cc21` [Example 24, 2-(1-methyl-1H-indol-6-yl)-6-(pyridin-3-yl)isoindolin-1-one], the melting point lay in the range of 187 to 188 °C.
`COc1ccc2c(c1)CN(c1ccc3sccc3c1)C2=O` [Example 25, 2-(benzo[b]thiophen-5-yl)-5-methoxyisoindolin-1-one]: the melting point was 183 to 186 °C.
With `O=C1c2cc(O)ccc2CN1c1ccc2sccc2c1` [Example 26, 2-(benzo[b]thiophen-5-yl)-6-hydroxyisoindolin-1-one], the melting point is 226 to 228 °C.
`CCOc1ccc2c(c1)C(=O)N(c1ccc3sccc3c1)C2` [Example 27, 2-(benzo[b]thiophen-5-yl)-6-ethoxyisoindolin-1-one] had a melting point of 127 to 129 °C.
`Nc1ccc2c(c1)C(=O)N(c1ccc3ccsc3c1)C2` [Example 29, 6-amino-2-(benzo[b]thiophen-6-yl)isoindolin-1-one] registered a melting point of 233 to 236 °C.
In the case of `CN(C)c1ccc2c(c1)C(=O)N(c1ccc3ccsc3c1)C2` [Example 30, 2-(benzo[b]thiophen-6-yl)-6-(dimethylamino)isoindolin-1-one] it was 195 to 197 °C; in that of `CN(C)c1ccc2c(c1)C(=O)N(c1ccc3c(c1)CCN3C)C2` [Example 31, 6-(dimethylamino)-2-(1-methylindolin-5-yl)isoindolin-1-one], 268 to 270 °C.
`COc1ccc2c(c1)C(=O)N(c1ccc3ncccc3c1)C2` [Example 32, 6-methoxy-2-(quinolin-6-yl)isoindolin-1-one]: the melting point was in the range of 194 to 197 °C.
`COc1ccc2c(c1)C(=O)N(c1ccc3c(ccc[n+]3[O-])c1)C2` [Example 33, 6-(6-methoxy-1-oxoisoindolin-2-yl)quinoline 1-oxide]: the melting point lay within 251 to 255 °C.
Regarding `COc1ccc2c(c1)C(=O)N(c1ccc3[nH]c(=O)ccc3c1)C2` [Example 34, 6-(6-methoxy-1-oxoisoindolin-2-yl)quinolin-2(1H)-one], the melting point lay in the range of 305 to 310 °C.
With `COc1ccc2c(c1)C(=O)N(c1ccc3[nH]c(=O)[nH]c3c1)C2` [Example 35, 5-(6-methoxy-1-oxoisoindolin-2-yl)-1H-benzo[d]imidazol-2(3H)-one], the melting point is 355 to 360 °C (dec.).
With `COc1ccc2c(c1)C(=O)N(c1ccc3c(c1)n(C)c(=O)n3C)C2` [Example 36, 5-(6-methoxy-1-oxoisoindolin-2-yl)-1,3-dimethyl-1H-benzo[d]imidazol-2(3H)-one], the melting point was in the range of 268 to 270 °C.
The same measure for `COc1ccc2c(c1)C(=O)N(c1ccc3c(c1)NCCN3)C2` [Example 37, 6-methoxy-2-(1,2,3,4-tetrahydroquinoxalin-6-yl)isoindolin-1-one]: 159 to 163 °C.

Source of the values: patent publication US20100267712A1, “ISOINDOLINE COMPOUNDS FOR THE TREATMENT OF SPINAL MUSCULAR ATROPHY AND OTHER USES” (The United States of America, as represented by the …, priority 2007, published 2010).
